Columns and labels:
[1] = system: ABC-DLBCL cell line OCI-Ly10 (MYD88-L265P, CD79A ITAM); test: In vivo tumor growth inhibition in ABC-DLBCL tumor model (OCI-Ly10 xenograft); conditions: OCI-Ly10 in female SCID Beige mice; 21 continuous days qd po; Compound A 50 mg/kg, venetoclax 75 mg/kg
Method: Female SCID Beige mice were implanted with the ABC-DLBCL cell line OCI-Ly10, which harbors TLR (MYD88-L265P) and BCR (CD79A ITAM) pathway activating mutations. The mice were treated with Compound A (50 mg/kg, qd, po, suspension in 0.5% Tween 20 and 0.25% hydroxyethyl cellulose), venetoclax (75 mg/kg, qd, po, solution in 60% phosal 50PG, 30% PEG 400, and 10% ethanol) or the combination for 21 continuous days.
After the 21-day drug treatment period, the mice were given a 19-day dosing holiday. […] After the 19-day drug holiday, dosing of the respective drug treatments was reinstated to each cohort.

[2] = system: SU-DHL-2 cells (MYD88-S222R); test: In vivo tumor growth inhibition in ABC-DLBCL tumor model (SU-DHL-2 xenograft); conditions: SU-DHL-2 in female SCID Beige mice; 27 continuous days qd po; Compound A/CA-4948 100 mg/kg, venetoclax 75 mg/kg
Method: Female SCID Beige mice were implanted with SU-DHL-2 cells which harbor MYD88-S222R pathway activating mutations. The mice were treated with Compound A (100 mg/kg, qd, po, suspension in 0.5% Tween 20 and 0.25% hydroxyethyl cellulose), venetoclax (75 mg/kg, qd, po, solution in 60% phosal 50PG, 30% PEG 400, and 10% ethanol) or the combination for 27 continuous days.
All in life data acquisition, including body weight, tumor length, tumor diameter, tumor ulceration, clinical signs and animal mortality was collected in Study Director. Tumor ulceration was scored on a 6 level system with severity of 4 or higher requiring attention. At the end of the study (24 hours after the last dose), all surviving animals were examined externally for possible clinical abnormalities or adverse clinical signs, weighed and tumor measurements were taken for the last time.

OCI-LY3 = test: ABC-DLBCL MYD88-L265P xenograft tumor model, OCI-LY3; type: in vivo
OCI-LY10 = test: ABC-DLBCL MYD88-L265P xenograft tumor model, OCI-LY10 (dose response); type: in vivo
ABC-DLBCL PDX tumors = ABC-DLBCL PDX tumors (MYD88 and CD79B double mutants); type: in vivo; conditions: activating mutations in TLR/IL-1R and BCR pathways (MYD88 and CD79B double mutants)

| Structure (SMILES) | tumor growth inhibition (TGI) [1] [%] | TGI % (Day 28) [2] [%] | efficacy in xenograft tumor model (OCI-LY3) | efficacy in xenograft tumor model (OCI-LY10) | efficacy in PDX tumors (ABC-DLBCL PDX tumors) |
| --- | --- | --- | --- | --- | --- |
| CC1(C)CCC(CN2CCN(c3ccc(C(=O)NS(=O)(=O)c4ccc(NCC5CCOCC5)c([N+](=O)[O-])c4)c(Oc4cnc5[nH]ccc5c4)c3)CC2)=C(c2ccc(Cl)cc2)C1 [venetoclax, reference compound] | 71 | – | – | – | – |
| Cc1cc(-c2nc(C(=O)Nc3cc4oc(N5CCOCC5)nc4nc3N3CC[C@@H](O)C3)co2)ccn1 [Compound A] | 63 | 66 | dose-dependent efficacy | dose-dependent efficacy | efficacious |

Reference: patent US10758518B2, “Compounds and compositions for treating hematological disorders” (Curis, Inc., priority 2017, dated 2020)
